# From US4691046A, “Butanedioic acid mono [(2-dimethylamino] ethyl ester)succinate” (Institut Organicheskoi Khimii Ordena Lenina I Ordena …, priority 1986, dated 1987)
# Tests used:
# [1] = test system: NAD-Ph--H2 --dehydrogenase; assay: Activity of NAD-Ph-H2-dehydrogenase in myocardium upon low-temperature treatment; assay type: in vivo, mice; details: 2.5 hours at -14° C.; 80 mg/kg (invention) or 64 mg/kg (ester); control 72.1 ± 1.4
# Method: (§2) The preparations were administered one hour before the standard low-temperature treatment (-14° C.) in doses of 80 mg/kg of the compound according to the present invention and 64 mg/kg of the prior art compound-butanedioic acid mono[(2-dimethylamino)-ethyl ester].
# [2] = test system: Glucose-6-phosphatedehydrogenase; assay: Activity of glucose-6-phosphatedehydrogenase in myocardium upon low-temperature treatment; assay type: in vivo, mice; details: 2.5 hours at -14° C.; 80 mg/kg (invention) or 64 mg/kg (ester); control 57.3 ± 1.3
# Method: as §2
# [3] = Stresso-protective activity, motion stress in slowly rotating drum for 48 hours; assay type: in vivo, rats; details: 48 h motion stress
# Method: In evaluation of the stresso-protective activity of the compound according to the present invention as a model use was made of a procedure of depriving rats of sleep, meals and water in a slowly rotating drum (at the speed of 0.2 km/h).
# The experiments were carried out on 42 nondescript male rats. In parallel experiments the antistress activity of butanedioic acid mono[(2-dimethylamino)ethyl ester] was studied; as the reference prepartion use was made of the prior art tranquilizer--diazepam which was used in the experiments for this very indication.
# 4 groups of animals were tested in parallel. Groups I and II were placed for 48 hours into a slowly rotating drum, groups III and IV were under normal conditions and were deprived only of meals and water. The compound according to the present invention and butanedioic acid mono[(2-dimethylamino)ethyl ester] were administered intraperitoneally in the dose of 10 mg/kg four times (2 times a day) in the volume of 2.5 ml/kg under the conditions of motion stress (Group I of the animals) and under normal conditions (Group III of animals). The control animals--Group II (active control) and Group IV (passive control) were given a physiological solution. The efficiency of the compound according to the present invention, of butanedioic acid mono[(2-dimethylamino)ethyl ester] and of diazepam was estimated on the basis of a set of characteristics showing the functional activity of the central nervous system, physical fitness and development of basic symptoms of the stress-syndrome.
# The residence of control rats in a slowly-rotating drum over 48 hours results in a noticeable deterioration of all the studied characteristics, especially those of higher nervous activity (learning) and development of stress-syndrome. The state of control animals was characterized by lowering of the overall behavioural activity as determined by the "open-field" test (37±15%) with reference to the passive control level, by a reduction in the speed of development of a conventional avoiding response in an aqueous labyrinth (58±15%), by an increase in the number of mistakes during the teaching time (175±25%), lowering of the ultimate physical endurance as determined by the swimming-with-load test (the load is equal to 10% by mass of the body (70±17%), adrenal hypertrophy (146±16%), thymus atrophy (49±9%) and formation of ulcers on the stomach mucous membrane (5.25±1.0%).
# Succinatedehydrogenase = assay: Activity of succinatedehydrogenase in myocardium upon low-temperature treatment; assay type: in vivo, mice; details: 2.5 hours at -14° C.; 80 mg/kg (invention) or 64 mg/kg (ester); control 72.3 ± 1.6
# Method: as §2
# [4] = Maximum duration of mice lifespan upon testing cold treatment (Le Blanc adaptation procedure); assay type: in vivo
# Method: (§1) To elucidate the effect of the compound according to the present invention on the adaptation phenomenon, experiments on male mice with a body mass of 18-20 g were carried out in conformity with the Le Blanc procedure according to which the mice were placed into a cold chamber (at -17° C.) for 10 minutes ever hour over the period of 9-10 hours. After one day the maximum lifespan of the mice at -17° C. was assessed along with the content of glucose in blood and of glycogen in organs upon a predetermined cold treatment (2.5 hours a -14° C.). The compound according to the present invention and butanedioic acid mono[(2-dimethylamino)-ethyl ester] (in doses of 80 and 64 mg/kg respectively) were introduced immediately after a series of short-time cold effects. In a number of experiments the compound according to the present invention was administered 1 hour prior to the testing (2.5 h) cold effect.
# NADH2 --dehydrogenase = assay: Activity of NADH2-dehydrogenase in myocardium upon low-temperature treatment; assay type: in vivo, mice; details: 2.5 hours at -14° C.; 80 mg/kg (invention) or 64 mg/kg (ester); control 69.8 ± 1.5
# Method: as §2
# [5] = Biochemical substrates in mice upon preset (2.5 hours) low-temperature treatment; details: 2.5 hours at -14° C.
# Method: as §2
# [6] = Survival of mice on acute cooling; assay type: in vivo
# Method: The activity of the compound according to the present invention was studied in experiments on animals. The effectivemess of the compound according to the present invention was studied for resistance against an acute cold effect in comparison with conventional preparations such as butanedioic acid mono[(2-dimethylamino)ethyl ester] and sodium succinate.
# The experiments were carried out on male mice (tetrahybdrids) with a body mass of 18-20 g which were placed into a cold chamber at a temperature of -15t to -17° C. in separate plastic cages slightly limiting their activity. […] The preparations were administered intraperiotoneally 1 hour before the cold effect the control animals were administered with a physiological solution.
# Pyruvatedehydrogenase = assay: Activity of pyruvatedehydrogenase in myocardium upon low-temperature treatment; assay type: in vivo, mice; details: 2.5 hours at -14° C.; 80 mg/kg (invention) or 64 mg/kg (ester); control 56.6 ± 1.1
# Method: as §2
# Isocitratedehydrogenase = assay: Activity of isocitratedehydrogenase in myocardium upon low-temperature treatment; assay type: in vivo, mice; details: 2.5 hours at -14° C.; 80 mg/kg (invention) or 64 mg/kg (ester); control 49.5 ± 1.2
# Method: as §2
# Glutamatedehydrogenase = assay: Activity of glutamatedehydrogenase in myocardium upon low-temperature treatment; assay type: in vivo, mice; details: 2.5 hours at -14° C.; 80 mg/kg (invention) or 64 mg/kg (ester); control 68.8 ± 1.5
# Method: as §2
# [7] = Blood glucose and organ glycogen upon predetermined (2.5 h) cold treatment (adaptation experiment); assay type: in vivo, mice; details: 2.5 h at -14° C.; for Glycogen, heart: control 1.7 ± 0.2; for Glycogen, liver: control 6.7 ± 0.4; for Blood glucose: control 37 ± 6
# Method: as §1
# [8] = adaptation + preparation 1 hour before the testing effect
# [9] = adaptation + preparation immediately after adaptation, 80 mg/kg (invention) or 64 mg/kg (ester)
compound,measurement,setting,value
"CN(C)CCOC(=O)CCC(=O)O [Compound of this invention, butanedioic acid mono[(2-dimethylamino)ethyl ester]succinate]",Activity of NAD-Ph-H2-dehydrogenase in myocardium,[1],85.9 ± 1.7 relative units
same,Activity of glucose-6-phosphatedehydrogenase in myocardium,[2],67.4 ± 1.5 relative units
same,formation of ulcers on the stomach mucous membrane,[3],4.8±1.5%
same,general behavioural activity compared with diazepam,[3]; in words,substantially higher general behavioural activity
same,Weight coefficient of thymus,"[3]; 10 mg/kg i.p. four times (invention, ester), control 0.95 ± 0.18, listed as compound of the present invention, 10 mg/kg",1.25 g/kg of the initial body mass
same,Weight coefficient of adrenal glands,"[3]; 10 mg/kg i.p. four times (invention, ester), control 1.246 ± 0.028, listed as compound of the present invention, 10 mg/kg",1.83 g/kg of the initial body mass
same,Number of attempts till reaching the learning criterion (water labyrinth),"[3]; 10 mg/kg i.p. four times (invention, ester), control 4.75 ± 0.5, listed as compound of the present invention, 10 mg/kg",2.75
same,Number of ulcers on the stomach mucous membrane,"[3]; 10 mg/kg i.p. four times (invention, ester), control 5.25 ± 1.0, listed as compound of the present invention, 10 mg/kg",2.5
same,Duration of swimming,"[3]; 10 mg/kg i.p. four times (invention, ester), control 244 ± 26, listed as compound of the present invention, 10 mg/kg",499 s
same,total behavioural activity,"[3]; open-field test, stressed control 37±15% of passive control",85±10%
same,higher nervous activity (protection),"[3]; stressed control 58±15% (avoiding response, aqueous labyrinth)",100±9%
same,physical endurance,"[3]; swimming-with-load test, stressed control 70±17%",143±28%
same,Activity of succinatedehydrogenase in myocardium,Succinatedehydrogenase,90.2 ± 1.8 relative units
same,"Lifespan in hours (at -17° C.), preparation without adaptation","[4]; no adaptation, intact animals 3.4 ± 0.4",7.8 ± 0.3 h
same,"Lifespan in hours (at -17° C.), preliminary adaptation + preparation","[4]; with preliminary adaptation, 80 mg/kg (invention) or 64 mg/kg (ester), adaptation alone 6.0 ± 0.3, listed as compound of the present invention",10.3 ± 0.6 h
same,Activity of NADH2-dehydrogenase in myocardium,NADH2 --dehydrogenase,73.4 ± 2.0 relative units
same,Liver glycogen,"[5]; 1 hour after 80 mg/kg (invention) or 64 mg/kg (ester), control 8.1 ± 0.6, intact 35.2 ± 4.5",9.8 ± 1.2 mg/kg
same,Blood glucose,"[5]; 1 hour after 80 mg/kg (invention) or 64 mg/kg (ester), control 42 ± 4, intact 79 ± 3",80 ± 4 mg. %
same,Creatine phosphate,"[5]; myocardium, 1 hour after 80 mg/kg (invention) or 64 mg/kg (ester), control 1.2 ± 0.08, intact 3.7 ± 0.3",2.3 ± 0.1 μm/g
same,Adenosine monophosphate,"[5]; myocardium, 1 hour after 80 mg/kg, control 0.45 ± 0.01, intact 0.51 ± 0.03",0.32 ± 0.02 μm/g
same,Adenosine diphosphate,"[5]; myocardium, 1 hour after 80 mg/kg, control 0.49 ± 0.02, intact 0.78 ± 0.03",0.86 ± 0.04 μm/g
same,Adenosine triphosphoric acid,"[5]; myocardium, 1 hour after 80 mg/kg, control 1.5 ± 0.1, intact 2.2 ± 0.3",1.9 ± 0.2 μm/g
same,"Survival, %, 1 hour","[6]; 1 hour of cold at -15 to -17° C., i.p. 1 hour before, 80 mg/kg (invention), 64 mg/kg (ester), 17 mg/kg (sodium succinate)",100%
same,"Survival, %, 2 hours","[6]; 2 hours of cold at -15 to -17° C., i.p. 1 hour before, 80 mg/kg (invention), 64 mg/kg (ester), 17 mg/kg (sodium succinate)",100%
same,"Survival, %, 3 hours","[6]; 3 hours of cold at -15 to -17° C., i.p. 1 hour before, 80 mg/kg (invention), 64 mg/kg (ester), 17 mg/kg (sodium succinate)",100%
same,"Survival, %, 4 hours","[6]; 4 hours of cold at -15 to -17° C., i.p. 1 hour before, 80 mg/kg (invention), 64 mg/kg (ester), 17 mg/kg (sodium succinate)",90%
same,"Survival, %, 5 hours","[6]; 5 hours of cold at -15 to -17° C., i.p. 1 hour before, 80 mg/kg (invention), 64 mg/kg (ester), 17 mg/kg (sodium succinate)",70%
same,"Survival, %, 6 hours","[6]; 6 hours of cold at -15 to -17° C., i.p. 1 hour before, 80 mg/kg (invention), 64 mg/kg (ester), 17 mg/kg (sodium succinate)",70%
same,protective effect on survival at high dose,[6]; doses above 300 mg/kg,less pronounced
same,Activity of pyruvatedehydrogenase in myocardium,Pyruvatedehydrogenase,68.9 ± 1.3 relative units
same,Activity of isocitratedehydrogenase in myocardium,Isocitratedehydrogenase,60.4 ± 1.6 relative units
same,Activity of glutamatedehydrogenase in myocardium,Glutamatedehydrogenase,78.3 ± 1.7 relative units
same,"Glycogen, heart",[7]; [8],2.6 ± 0.4 mg/g
same,"Glycogen, liver",[7]; [8],11.7 ± 2.4 mg/g
same,Blood glucose,[7]; [8],78 ± 6 mg. %
same,"Glycogen, heart",[7]; [9],2.9 ± 0.2 mg/g
same,"Glycogen, liver",[7]; [9],18.2 ± 2.1 mg/g
same,Blood glucose,[7]; [9],88 ± 2 mg. %
